Experimental data reported in patent US20230081426A1, “COMPOUNDS AND METHODS FOR KRAS MODULATION AND INDICATIONS THEREFOR” (Plexxikon Inc., priority 2020, published 2023).

Tests used:
[1] = target: T1, G12V-mutant human KRAS (amino acid residues 1-188) (Homo sapiens, UniProt P01116, G12V); test: KRAS Binding Competition Assay (AlphaScreen; biotinylated KRpep-2d analogue), G12V; settings: geometric mean, read-out: KRAS GMean IC50 (uM) MUTATION: G12V
T1 construct: G12V-mutant human KRAS (amino acid residues 1-188) with FLAG tag was purified from E. coli; made in house; host or cells: E. coli
Protocol: Compound binding disrupts the interaction of KRpep-2d with KRAS, leading to a decrease in Alpha signal.
All assay components were prepared in 20 mM HEPES (pH 7.5), 100 mM NaCl, 5 mM MgCl2, 0.01% Tween-20, and 0.01% BSA. Biotinylated analogues of KRpep-2d were custom synthesized. The binding competition assays were performed using 10 nM of mutant KRAS and 10 nM of biotinylated KRpep-2d analogue. 19 μL of KRAS protein and 4 μL of biotinylated KRpep-2d were added to the wells of a 384-well plate containing 1 μL of various concentrations of test compound or DMSO vehicle. 16 wells containing KRAS, biotinylated KRpep-2d, and 5% DMSO served as high controls. 16 wells containing KRAS only and 5% DMSO served as low controls. Binding reactions were incubated for 1 hour at 25° C., then Anti-Flag Acceptor and Streptavidin Donor Alpha beads were added at a final concentration of 10 μg/mL for an additional hour at room temperature. Alpha signal was read out on a Perkin Elmer Envision HTS instrument. The percentage inhibition at individual compound concentrations relative to high and low controls was calculated. The data were analyzed by using nonlinear regression to generate IC50 values.

[2] = target: T2, G12D-mutant human KRAS (amino acid residues 1-188) (Homo sapiens, UniProt P01116, G12D); test: KRAS Binding Disruption Assay (AlphaScreen; biotinylated KRpep-2d analogue or RAF1-RBD), G12D; settings: KRAS G12D; geometric mean; read-out: KRAS GMean IC50 (uM) MUTATION: G12D
T2 construct: G12D or G12C-mutant human KRAS (amino acid residues 1-188) with FLAG tag; made in house; host or cells: E. coli
How it was run: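 Compounds are titrated against 5-20 nM mutant KRAS and 5-20 nM of either a biotinylated KRpep-2d analogue or RAF1-RBD, incubated 1 h at 25° C. Disruption is detected as reduced Alpha signal after 1 h with donor and acceptor beads at 10 μg/mL.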

SMILES: O=C(CN1CCCS1(=O)=O)N1[C@@H]2CC[C@H]1CN(c1nc(OCC34CCCN3CCC4)nc3cc(-c4cc(O)cc5ccccc45)ccc13)C2 [P-0092, 2-(1,1-dioxidoisothiazolidin-2-yl)-1-((1R,5S)-3-(7-(3-hydroxynaphthalen-1-yl)-2-((tetrahydro-1H-pyrrolizin-7a(5H)-yl)methoxy)quinazolin-4-yl)-3,8-diazabicyclo[3.2.1]octan-8-yl)ethan-1-one]
- IC50 [1]: 0.0001 to 10 µM
- IC50 [2]: 0.0001 to 10 µM

SMILES: NS(=O)(=O)CCC(=O)N1[C@@H]2CC[C@H]1CN(c1nc(OCC34CCCN3CCC4)nc3cc(-c4cc(O)cc5ccccc45)ccc13)C2 [P-0093, 3-((1R,5S)-3-(7-(3-hydroxynaphthalen-1-yl)-2-((tetrahydro-1H-pyrrolizin-7a(5H)-yl)methoxy)quinazolin-4-yl)-3,8-diazabicyclo[3.2.1]octan-8-yl)-3-oxopropane-1-sulfonamide]
- IC50 [1]: 0.0001 to 10 µM
- IC50 [2]: 0.0001 to 10 µM

SMILES: O=C(O)CNC(=O)N1[C@@H]2CC[C@H]1CN(c1nc(OCC34CCCN3CCC4)nc3cc(-c4cc(O)cc5ccccc45)ccc13)C2 [P-0094, ((1R,5S)-3-(7-(3-hydroxynaphthalen-1-yl)-2-((tetrahydro-1H-pyrrolizin-7a(5H)-yl)methoxy)quinazolin-4-yl)-3,8-diazabicyclo[3.2.1]octane-8-carbonyl)glycine]
- IC50 [1]: 0.0001 to 10 µM
- IC50 [2]: 0.0001 to 10 µM

SMILES: Oc1cc(-c2ccc3c(N4C[C@H]5CC[C@@H](C4)N5)nc(OCC45CCCCN4CCCC5)nc3c2)c2ccccc2c1 [P-0095, 4-(4-((1R,5S)-3,8-diazabicyclo[3.2.1]octan-3-yl)-2-((octahydro-9aH-quinolizin-9a-yl)methoxy)quinazolin-7-yl)naphthalen-2-ol]
- IC50 [1]: 10 to 100 µM
- IC50 [2]: 0.0001 to 10 µM

SMILES: O=C(NC1CCNC1)N1[C@@H]2CC[C@H]1CN(c1nc(OCC34CCCN3CCC4)nc3cc(-c4cc(O)cc5ccccc45)ccc13)C2 (stereo partly drawn) [P-0097, (1R,5S)-3-(7-(3-hydroxynaphthalen-1-yl)-2-((tetrahydro-1H-pyrrolizin-7a(5H)-yl)methoxy)quinazolin-4-yl)-N-(pyrrolidin-3-yl)-3,8-diazabicyclo[3.2.1]octane-8-carboxamide]
- IC50 [1]: 0.0001 to 10 µM
- IC50 [2]: 0.0001 to 10 µM

SMILES: O=C(OC1CCOC1)N1[C@@H]2CC[C@H]1CN(c1nc(OCC34CCCN3CCC4)nc3cc(-c4cc(O)cc5ccccc45)ccc13)C2 (stereo partly drawn) [P-0098, Tetrahydrofuran-3-yl (1R,5S)-3-(7-(3-hydroxynaphthalen-1-yl)-2-((tetrahydro-1H-pyrrolizin-7a(5H)-yl)methoxy)quinazolin-4-yl)-3,8-diazabicyclo[3.2.1]octane-8-carboxylate]
- IC50 [1]: 0.0001 to 10 µM
- IC50 [2]: 0.0001 to 10 µM

SMILES: Cc1ccc2[nH]ncc2c1-c1ccc2c(N3C[C@H]4CC[C@@H](C3)N4)nc(OCC34CCCN3CCC4)nc2c1F [P-0101, 4-((1R,5S)-3,8-diazabicyclo[3.2.1]octan-3-yl)-8-fluoro-7-(5-methyl-1H-indazol-4-yl)-2-((tetrahydro-1H-pyrrolizin-7a(5H)-yl)methoxy)quinazoline]
- IC50 [1]: 10 to 100 µM
- IC50 [2]: 0.0001 to 10 µM

SMILES: CN1CCC[C@H]1COc1nc(N2C[C@H]3CC[C@@H](C2)N3C(=O)CO)c2ccc(-c3cc(O)cc4ccccc34)c(F)c2n1 [P-0104, 1-((1R,5S)-3-(8-fluoro-7-(3-hydroxynaphthalen-1-yl)-2-(((S)-1-methylpyrrolidin-2-yl)methoxy)quinazolin-4-yl)-3,8-diazabicyclo[3.2.1]octan-8-yl)-2-hydroxyethan-1-one]
- IC50 [1]: 0.0001 to 10 µM
- IC50 [2]: 0.0001 to 10 µM

SMILES: CN1CCC[C@H]1COc1nc(N2C[C@H]3CC[C@@H](C2)N3C(=O)CCS(N)(=O)=O)c2ccc(-c3cc(O)cc4ccccc34)c(F)c2n1 [P-0105, 3-((1R,5S)-3-(8-fluoro-7-(3-hydroxynaphthalen-1-yl)-2-(((S)-1-methylpyrrolidin-2-yl)methoxy)quinazolin-4-yl)-3,8-diazabicyclo[3.2.1]octan-8-yl)-3-oxopropane-1-sulfonamide]
- IC50 [1]: 0.0001 to 10 µM
- IC50 [2]: 0.0001 to 10 µM

SMILES: CN1CCC[C@H]1COc1nc(N2C[C@H]3CC[C@@H](C2)N3C(=O)c2n[nH]c(=O)[nH]2)c2ccc(-c3cc(O)cc4ccccc34)c(F)c2n1 [P-0107, 5-((1R,5S)-3-(8-fluoro-7-(3-hydroxynaphthalen-1-yl)-2-(((S)-1-methylpyrrolidin-2-yl)methoxy)quinazolin-4-yl)-3,8-diazabicyclo[3.2.1]octane-8-carbonyl)-2,4-dihydro-3H-1,2,4-triazol-3-one]
- IC50 [1]: 0.0001 to 10 µM
- IC50 [2]: 0.0001 to 10 µM

SMILES: O=C(c1c[nH]c(=O)[nH]c1=O)N1[C@@H]2CC[C@H]1CN(c1nc(OCC34CCCN3CCC4)nc3cc(-c4cc(O)cc5ccccc45)ccc13)C2 [P-0108, 5-((1R,5S)-3-(7-(3-hydroxynaphthalen-1-yl)-2-((tetrahydro-1H-pyrrolizin-7a(5H)-yl)methoxy)quinazolin-4-yl)-3,8-diazabicyclo[3.2.1]octane-8-carbonyl)pyrimidine-2,4(1H,3H)-dione]
- IC50 [1]: 0.0001 to 10 µM
- IC50 [2]: 0.0001 to 10 µM

SMILES: Cc1cc(C(=O)N2[C@@H]3CC[C@H]2CN(c2nc(OCC45CCCN4CCC5)nc4cc(-c5cc(O)cc6ccccc56)ccc24)C3)[nH]c(=O)n1 [P-0109, 6-((1R,5S)-3-(7-(3-hydroxynaphthalen-1-yl)-2-((tetrahydro-1H-pyrrolizin-7a(5H)-yl)methoxy)quinazolin-4-yl)-3,8-diazabicyclo[3.2.1]octane-8-carbonyl)-4-methylpyrimidin-2(1H)-one]
- IC50 [1]: 10 to 100 µM
- IC50 [2]: 0.0001 to 10 µM

SMILES: O=C([C@@H]1CCNC1)N1[C@@H]2CC[C@H]1CN(c1nc(OCC34CCCN3CCC4)nc3cc(-c4cc(O)cc5ccccc45)ccc13)C2 [P-0111, ((1R,5S)-3-(7-(3-hydroxynaphthalen-1-yl)-2-((tetrahydro-1H-pyrrolizin-7a(5H)-yl)methoxy)quinazolin-4-yl)-3,8-diazabicyclo[3.2.1]octan-8-yl)((R)-pyrrolidin-3-yl)methanone]
- IC50 [1]: 0.0001 to 10 µM
- IC50 [2]: 0.0001 to 10 µM

SMILES: O=C([C@H]1CCNC1)N1[C@@H]2CC[C@H]1CN(c1nc(OCC34CCCN3CCC4)nc3cc(-c4cc(O)cc5ccccc45)ccc13)C2 [P-0112, ((1R,5S)-3-(7-(3-hydroxynaphthalen-1-yl)-2-((tetrahydro-1H-pyrrolizin-7a(5H)-yl)methoxy)quinazolin-4-yl)-3,8-diazabicyclo[3.2.1]octan-8-yl)((S)-pyrrolidin-3-yl)methanone]
- IC50 [1]: 0.0001 to 10 µM
- IC50 [2]: 0.0001 to 10 µM

SMILES: O=C(CN1[C@@H]2CC[C@H]1CN(c1nc(OCC34CCCN3CCC4)nc3cc(-c4cc(O)cc5ccccc45)ccc13)C2)C1CCNCC1 [P-0138, 2-((1R,5S)-3-(7-(3-hydroxynaphthalen-1-yl)-2-((tetrahydro-1H-pyrrolizin-7a(5H)-yl)methoxy)quinazolin-4-yl)-3,8-diazabicyclo[3.2.1]octan-8-yl)-1-(piperidin-4-yl)ethan-1-one]
- IC50 [1]: 0.0001 to 10 µM
- IC50 [2]: 0.0001 to 10 µM

SMILES: COCCS(=O)(=O)N1[C@@H]2CC[C@H]1CN(c1nc(OCC34CCCN3CCC4)nc3cc(-c4cc(O)cc5ccccc45)ccc13)C2 [P-0139, 4-(4-((1R,5S)-8-((2-methoxyethyl)sulfonyl)-3,8-diazabicyclo[3.2.1]octan-3-yl)-2-((tetrahydro-1H-pyrrolizin-7a(5H)-yl)methoxy)quinazolin-7-yl)naphthalen-2-ol]
- IC50 [1]: 10 to 100 µM
- IC50 [2]: 10 to 100 µM

SMILES: O=C(N[C@@H]1C[C@H]2CC[C@@H]1O2)N1[C@@H]2CC[C@H]1CN(c1nc(OCC34CCCN3CCC4)nc3cc(-c4cc(O)cc5ccccc45)ccc13)C2 [P-0140, (1R,5S)-N-((1S,2R,4R)-7-oxabicyclo[2.2.1]heptan-2-yl)-3-(7-(3-hydroxynaphthalen-1-yl)-2-((tetrahydro-1H-pyrrolizin-7a(5H)-yl)methoxy)quinazolin-4-yl)-3,8-diazabicyclo[3.2.1]octane-8-carboxamide]
- IC50 [1]: 0.0001 to 10 µM
- IC50 [2]: 0.0001 to 10 µM

SMILES: CC(C)(O)CNC(=O)N1[C@@H]2CC[C@H]1CN(c1nc(OCC34CCCN3CCC4)nc3cc(-c4cc(O)cc5ccccc45)ccc13)C2 [P-0141, (1R,5S)-N-(2-hydroxy-2-methylpropyl)-3-(7-(3-hydroxynaphthalen-1-yl)-2-((tetrahydro-1H-pyrrolizin-7a(5H)-yl)methoxy)quinazolin-4-yl)-3,8-diazabicyclo[3.2.1]octane-8-carboxamide]
- IC50 [1]: 0.0001 to 10 µM
- IC50 [2]: 0.0001 to 10 µM

SMILES: O=C(N[C@H]1CCCNC1)N1[C@@H]2CC[C@H]1CN(c1nc(OCC34CCCN3CCC4)nc3cc(-c4cc(O)cc5ccccc45)ccc13)C2 [P-0142, (1R,5S)-3-(7-(3-hydroxynaphthalen-1-yl)-2-((tetrahydro-1H-pyrrolizin-7a(5H)-yl)methoxy)quinazolin-4-yl)-N-((S)-piperidin-3-yl)-3,8-diazabicyclo[3.2.1]octane-8-carboxamide]
- IC50 [1]: 0.0001 to 10 µM
- IC50 [2]: 0.0001 to 10 µM
